Experimental data as given in ChEMBL document CHEMBL5724914, “Linking interpersonal differences in gut microbiota composition and drug biotransformation activity” (2024).

Experiment: (§1) The drug is tested on Z-001 corresponding to mouse gut metagenome with ENA study accession number: PRJEB37062 and ENA sample accession number: ERS12561801 for biotransformation under anaerobic condition. The drug concentrations were measured over 9 timepoints collected between 0 and 24 hours of incubation by liquid-chromatography-coupled mass spectrometry (LC–MS)
Details: 2 µM
Note: call rule not given here.

Bacterial Biotransformation	Structure (SMILES)
Compound metabolized	Cc1ccc(S(=O)(=O)NC(=O)NN2CC3CCCC3C2)cc1 (stereo not given) [GLICLAZIDE]
Compound NOT metabolized	CCC(=O)NCC[C@@H]1CCc2ccc3c(c21)CCO3 [RAMELTEON]
Compound metabolized	CCCc1nc2c(C)cc(-c3nc4ccccc4n3C)cc2n1Cc1ccc(-c2ccccc2C(=O)O)cc1

Structure (SMILES)	Bacterial Biotransformation
COc1ccc2c3c1O[C@H]1C[C@@H](O)C=C[C@@]31CCN(C)C2 [GALANTAMINE]	Compound NOT metabolized

Experiment: as §1, with “Z-002” for “Z-001”, “rabbit” for “mouse”, “ERS12561802” for “ERS12561801”
Details: 2 µM

Bacterial Biotransformation	Structure (SMILES)
Compound metabolized	Cc1ccc(S(=O)(=O)NC(=O)NN2CC3CCCC3C2)cc1 (stereo not given) [GLICLAZIDE]
Compound metabolized	CCC(=O)NCC[C@@H]1CCc2ccc3c(c21)CCO3 [RAMELTEON]
Compound metabolized	CCCc1nc2c(C)cc(-c3nc4ccccc4n3C)cc2n1Cc1ccc(-c2ccccc2C(=O)O)cc1

Structure (SMILES)	Bacterial Biotransformation
COc1ccc2c3c1O[C@H]1C[C@@H](O)C=C[C@@]31CCN(C)C2 [GALANTAMINE]	Compound metabolized

Details: human gut metagenome, 24 h, 2 µM

Bacterial Biotransformation	Structure (SMILES)
Compound metabolized	Cc1ccc(S(=O)(=O)NC(=O)NN2CC3CCCC3C2)cc1 (stereo not given) [GLICLAZIDE]
Compound NOT metabolized	CCC(=O)NCC[C@@H]1CCc2ccc3c(c21)CCO3 [RAMELTEON]
Compound metabolized	CCCc1nc2c(C)cc(-c3nc4ccccc4n3C)cc2n1Cc1ccc(-c2ccccc2C(=O)O)cc1

Structure (SMILES)	Bacterial Biotransformation
COc1ccc2c3c1O[C@H]1C[C@@H](O)C=C[C@@]31CCN(C)C2 [GALANTAMINE]	Compound NOT metabolized

Experiment: as §1, with “WLS-370” for “Z-001”, “human” for “mouse”, “ERS12561793” for “ERS12561801”
Details: 2 µM

Bacterial Biotransformation	Structure (SMILES)
Compound metabolized	Cc1ccc(S(=O)(=O)NC(=O)NN2CC3CCCC3C2)cc1 (stereo not given) [GLICLAZIDE]
Compound metabolized	CCC(=O)NCC[C@@H]1CCc2ccc3c(c21)CCO3 [RAMELTEON]
Compound metabolized	CCCc1nc2c(C)cc(-c3nc4ccccc4n3C)cc2n1Cc1ccc(-c2ccccc2C(=O)O)cc1

Structure (SMILES)	Bacterial Biotransformation
COc1ccc2c3c1O[C@H]1C[C@@H](O)C=C[C@@]31CCN(C)C2 [GALANTAMINE]	Compound NOT metabolized

Details: human gut metagenome, 24 h, 2 µM
Remark: another data set of the same source

Bacterial Biotransformation	Structure (SMILES)
Compound metabolized	Cc1ccc(S(=O)(=O)NC(=O)NN2CC3CCCC3C2)cc1 (stereo not given) [GLICLAZIDE]
Compound metabolized	CCC(=O)NCC[C@@H]1CCc2ccc3c(c21)CCO3 [RAMELTEON]
Compound metabolized	CCCc1nc2c(C)cc(-c3nc4ccccc4n3C)cc2n1Cc1ccc(-c2ccccc2C(=O)O)cc1

Structure (SMILES)	Bacterial Biotransformation
COc1ccc2c3c1O[C@H]1C[C@@H](O)C=C[C@@]31CCN(C)C2 [GALANTAMINE]	Compound metabolized

Details: human gut metagenome, 24 h, 2 µM
Remark: another data set of the same source

Bacterial Biotransformation	Structure (SMILES)
Compound metabolized	Cc1ccc(S(=O)(=O)NC(=O)NN2CC3CCCC3C2)cc1 (stereo not given) [GLICLAZIDE]
Compound metabolized	CCC(=O)NCC[C@@H]1CCc2ccc3c(c21)CCO3 [RAMELTEON]
Compound metabolized	CCCc1nc2c(C)cc(-c3nc4ccccc4n3C)cc2n1Cc1ccc(-c2ccccc2C(=O)O)cc1

Structure (SMILES)	Bacterial Biotransformation
COc1ccc2c3c1O[C@H]1C[C@@H](O)C=C[C@@]31CCN(C)C2 [GALANTAMINE]	Compound NOT metabolized

Details: human gut metagenome, 24 h, 2 µM
Remark: another data set of the same source

Bacterial Biotransformation	Structure (SMILES)
Compound metabolized	Cc1ccc(S(=O)(=O)NC(=O)NN2CC3CCCC3C2)cc1 (stereo not given) [GLICLAZIDE]
Compound metabolized	CCC(=O)NCC[C@@H]1CCc2ccc3c(c21)CCO3 [RAMELTEON]
Compound metabolized	CCCc1nc2c(C)cc(-c3nc4ccccc4n3C)cc2n1Cc1ccc(-c2ccccc2C(=O)O)cc1

Structure (SMILES)	Bacterial Biotransformation
COc1ccc2c3c1O[C@H]1C[C@@H](O)C=C[C@@]31CCN(C)C2 [GALANTAMINE]	Compound metabolized

Details: human gut metagenome, 24 h, 2 µM
Remark: another data set of the same source

Bacterial Biotransformation	Structure (SMILES)
Compound metabolized	Cc1ccc(S(=O)(=O)NC(=O)NN2CC3CCCC3C2)cc1 (stereo not given) [GLICLAZIDE]
Compound metabolized	CCC(=O)NCC[C@@H]1CCc2ccc3c(c21)CCO3 [RAMELTEON]
Compound metabolized	CCCc1nc2c(C)cc(-c3nc4ccccc4n3C)cc2n1Cc1ccc(-c2ccccc2C(=O)O)cc1

Structure (SMILES)	Bacterial Biotransformation
COc1ccc2c3c1O[C@H]1C[C@@H](O)C=C[C@@]31CCN(C)C2 [GALANTAMINE]	Compound NOT metabolized

Experiment: as §1, with “Z-020” for “Z-001”, “rabbit” for “mouse”, “ERS12561819” for “ERS12561801”
Details: 2 µM

Bacterial Biotransformation	Structure (SMILES)
Compound metabolized	Cc1ccc(S(=O)(=O)NC(=O)NN2CC3CCCC3C2)cc1 (stereo not given) [GLICLAZIDE]
Compound metabolized	CCC(=O)NCC[C@@H]1CCc2ccc3c(c21)CCO3 [RAMELTEON]
Compound metabolized	CCCc1nc2c(C)cc(-c3nc4ccccc4n3C)cc2n1Cc1ccc(-c2ccccc2C(=O)O)cc1

Structure (SMILES)	Bacterial Biotransformation
COc1ccc2c3c1O[C@H]1C[C@@H](O)C=C[C@@]31CCN(C)C2 [GALANTAMINE]	Compound NOT metabolized

Experiment: as §1, with “Z-030” for “Z-001”, “ERS12561829” for “ERS12561801”
Details: 2 µM

Bacterial Biotransformation	Structure (SMILES)
Compound NOT metabolized	Cc1ccc(S(=O)(=O)NC(=O)NN2CC3CCCC3C2)cc1 (stereo not given) [GLICLAZIDE]
Compound NOT metabolized	CCC(=O)NCC[C@@H]1CCc2ccc3c(c21)CCO3 [RAMELTEON]
Compound NOT metabolized	CCCc1nc2c(C)cc(-c3nc4ccccc4n3C)cc2n1Cc1ccc(-c2ccccc2C(=O)O)cc1

Structure (SMILES)	Bacterial Biotransformation
COc1ccc2c3c1O[C@H]1C[C@@H](O)C=C[C@@]31CCN(C)C2 [GALANTAMINE]	Compound NOT metabolized

Experiment: as §1, with “Z-026” for “Z-001”, “to” for “to mouse gut”, “ERS12561825” for “ERS12561801”
Details: 2 µM

Bacterial Biotransformation	Structure (SMILES)
Compound metabolized	Cc1ccc(S(=O)(=O)NC(=O)NN2CC3CCCC3C2)cc1 (stereo not given) [GLICLAZIDE]
Compound NOT metabolized	CCC(=O)NCC[C@@H]1CCc2ccc3c(c21)CCO3 [RAMELTEON]
Compound metabolized	CCCc1nc2c(C)cc(-c3nc4ccccc4n3C)cc2n1Cc1ccc(-c2ccccc2C(=O)O)cc1

Structure (SMILES)	Bacterial Biotransformation
COc1ccc2c3c1O[C@H]1C[C@@H](O)C=C[C@@]31CCN(C)C2 [GALANTAMINE]	Compound NOT metabolized

Details: human gut metagenome, 24 h, 2 µM
Remark: another data set of the same source

Bacterial Biotransformation	Structure (SMILES)
Compound metabolized	Cc1ccc(S(=O)(=O)NC(=O)NN2CC3CCCC3C2)cc1 (stereo not given) [GLICLAZIDE]
Compound metabolized	CCC(=O)NCC[C@@H]1CCc2ccc3c(c21)CCO3 [RAMELTEON]
Compound metabolized	CCCc1nc2c(C)cc(-c3nc4ccccc4n3C)cc2n1Cc1ccc(-c2ccccc2C(=O)O)cc1

Structure (SMILES)	Bacterial Biotransformation
COc1ccc2c3c1O[C@H]1C[C@@H](O)C=C[C@@]31CCN(C)C2 [GALANTAMINE]	Compound metabolized

Experiment: as §1, with “Z-028” for “Z-001”, “ERS12561827” for “ERS12561801”
Details: 2 µM

Bacterial Biotransformation	Structure (SMILES)
Compound metabolized	Cc1ccc(S(=O)(=O)NC(=O)NN2CC3CCCC3C2)cc1 (stereo not given) [GLICLAZIDE]
Compound NOT metabolized	CCC(=O)NCC[C@@H]1CCc2ccc3c(c21)CCO3 [RAMELTEON]
Compound metabolized	CCCc1nc2c(C)cc(-c3nc4ccccc4n3C)cc2n1Cc1ccc(-c2ccccc2C(=O)O)cc1

Structure (SMILES)	Bacterial Biotransformation
COc1ccc2c3c1O[C@H]1C[C@@H](O)C=C[C@@]31CCN(C)C2 [GALANTAMINE]	Compound NOT metabolized

Details: human gut metagenome, 24 h, 2 µM
Remark: another data set of the same source

Bacterial Biotransformation	Structure (SMILES)
Compound metabolized	Cc1ccc(S(=O)(=O)NC(=O)NN2CC3CCCC3C2)cc1 (stereo not given) [GLICLAZIDE]
Compound metabolized	CCC(=O)NCC[C@@H]1CCc2ccc3c(c21)CCO3 [RAMELTEON]
Compound metabolized	CCCc1nc2c(C)cc(-c3nc4ccccc4n3C)cc2n1Cc1ccc(-c2ccccc2C(=O)O)cc1

Structure (SMILES)	Bacterial Biotransformation
COc1ccc2c3c1O[C@H]1C[C@@H](O)C=C[C@@]31CCN(C)C2 [GALANTAMINE]	Compound metabolized

Experiment: as §1, with “Z-027” for “Z-001”, “to” for “to mouse gut”, “ERS12561826” for “ERS12561801”
Details: 2 µM

Bacterial Biotransformation	Structure (SMILES)
Compound metabolized	Cc1ccc(S(=O)(=O)NC(=O)NN2CC3CCCC3C2)cc1 (stereo not given) [GLICLAZIDE]
Compound NOT metabolized	CCC(=O)NCC[C@@H]1CCc2ccc3c(c21)CCO3 [RAMELTEON]
Compound metabolized	CCCc1nc2c(C)cc(-c3nc4ccccc4n3C)cc2n1Cc1ccc(-c2ccccc2C(=O)O)cc1

Structure (SMILES)	Bacterial Biotransformation
COc1ccc2c3c1O[C@H]1C[C@@H](O)C=C[C@@]31CCN(C)C2 [GALANTAMINE]	Compound NOT metabolized

Experiment: as §1, with “WLS-170” for “Z-001”, “human” for “mouse”, “ERS12561762” for “ERS12561801”
Details: 2 µM

Bacterial Biotransformation	Structure (SMILES)
Compound metabolized	Cc1ccc(S(=O)(=O)NC(=O)NN2CC3CCCC3C2)cc1 (stereo not given) [GLICLAZIDE]
Compound metabolized	CCC(=O)NCC[C@@H]1CCc2ccc3c(c21)CCO3 [RAMELTEON]
Compound metabolized	CCCc1nc2c(C)cc(-c3nc4ccccc4n3C)cc2n1Cc1ccc(-c2ccccc2C(=O)O)cc1

Structure (SMILES)	Bacterial Biotransformation
COc1ccc2c3c1O[C@H]1C[C@@H](O)C=C[C@@]31CCN(C)C2 [GALANTAMINE]	Compound metabolized

Experiment: as §1, with “Z-010” for “Z-001”, “to” for “to mouse gut”, “ERS12561810” for “ERS12561801”
Details: 2 µM

Bacterial Biotransformation	Structure (SMILES)
Compound metabolized	Cc1ccc(S(=O)(=O)NC(=O)NN2CC3CCCC3C2)cc1 (stereo not given) [GLICLAZIDE]
Compound metabolized	CCC(=O)NCC[C@@H]1CCc2ccc3c(c21)CCO3 [RAMELTEON]
Compound metabolized	CCCc1nc2c(C)cc(-c3nc4ccccc4n3C)cc2n1Cc1ccc(-c2ccccc2C(=O)O)cc1

Structure (SMILES)	Bacterial Biotransformation
COc1ccc2c3c1O[C@H]1C[C@@H](O)C=C[C@@]31CCN(C)C2 [GALANTAMINE]	Compound metabolized

Experiment: as §1, with “Z-024” for “Z-001”, “pig” for “mouse”, “ERS12561823” for “ERS12561801”
Details: 2 µM

Bacterial Biotransformation	Structure (SMILES)
Compound metabolized	Cc1ccc(S(=O)(=O)NC(=O)NN2CC3CCCC3C2)cc1 (stereo not given) [GLICLAZIDE]
Compound metabolized	CCC(=O)NCC[C@@H]1CCc2ccc3c(c21)CCO3 [RAMELTEON]
Compound metabolized	CCCc1nc2c(C)cc(-c3nc4ccccc4n3C)cc2n1Cc1ccc(-c2ccccc2C(=O)O)cc1

Structure (SMILES)	Bacterial Biotransformation
COc1ccc2c3c1O[C@H]1C[C@@H](O)C=C[C@@]31CCN(C)C2 [GALANTAMINE]	Compound NOT metabolized

Experiment: as §1, with “WLS-090” for “Z-001”, “human” for “mouse”, “ERS12561753” for “ERS12561801”
Details: 2 µM

Bacterial Biotransformation	Structure (SMILES)
Compound metabolized	Cc1ccc(S(=O)(=O)NC(=O)NN2CC3CCCC3C2)cc1 (stereo not given) [GLICLAZIDE]
Compound metabolized	CCC(=O)NCC[C@@H]1CCc2ccc3c(c21)CCO3 [RAMELTEON]
Compound metabolized	CCCc1nc2c(C)cc(-c3nc4ccccc4n3C)cc2n1Cc1ccc(-c2ccccc2C(=O)O)cc1

Structure (SMILES)	Bacterial Biotransformation
COc1ccc2c3c1O[C@H]1C[C@@H](O)C=C[C@@]31CCN(C)C2 [GALANTAMINE]	Compound metabolized

Experiment: as §1, with “Z-004” for “Z-001”, “to” for “to mouse gut”, “ERS12561804” for “ERS12561801”
Details: 2 µM

Bacterial Biotransformation	Structure (SMILES)
Compound NOT metabolized	Cc1ccc(S(=O)(=O)NC(=O)NN2CC3CCCC3C2)cc1 (stereo not given) [GLICLAZIDE]
Compound metabolized	CCC(=O)NCC[C@@H]1CCc2ccc3c(c21)CCO3 [RAMELTEON]
Compound metabolized	CCCc1nc2c(C)cc(-c3nc4ccccc4n3C)cc2n1Cc1ccc(-c2ccccc2C(=O)O)cc1

Structure (SMILES)	Bacterial Biotransformation
COc1ccc2c3c1O[C@H]1C[C@@H](O)C=C[C@@]31CCN(C)C2 [GALANTAMINE]	Compound NOT metabolized
